Experimental data as given in US6229055A, “Synthesis of fluorinated xanthene derivatives” (Molecular Probes, Inc., priority 2000, dated 2001).
Structures can show the parent of a compound that is named as a salt.

Assays:
[1] = molecular target: prostatic acid phosphatase (Homo sapiens, UniProt P15309); assay: Detection of acid phosphatase activity; assay type: biochemical; conditions: 10 μM substrate, 0.1 units enzyme, pH 5, excitation 490 nm, emission 515 nm
Method: The rate of fluorescent product generation is measured by exciting a solution of 10 μM DFFDP or fluorescein diphosphate (FDP) at 490 nm while monitoring the emission at 515 nm in a fluorometer in the presence of 0.1 units of prostatic acid phosphatase at pH 5. Under these conditions, acid phosphatase produces about a 6.5 times greater change in signal using DFFP than FDP.

[2] = molecular target: T1, Endogenous (Lysosomal) β-galactosidase in NIH 3T3 cells (Mus musculus, UniProt P23780); assay: Detection of endogenous (lysosomal) β-galactosidase activity in intact cells by flow cytometry; assay type: cell-based; conditions: 1 μM, 37° C., 30 minutes; for Fluorescence Emission: normalized to FDG, Table 4
T1 construct: Endogenous (Lysosomal) β-galactosidase Activity in Intact Cells; endogenous in cells; host or cells: NIH 3T3
T1 sequence (P23780 30-647): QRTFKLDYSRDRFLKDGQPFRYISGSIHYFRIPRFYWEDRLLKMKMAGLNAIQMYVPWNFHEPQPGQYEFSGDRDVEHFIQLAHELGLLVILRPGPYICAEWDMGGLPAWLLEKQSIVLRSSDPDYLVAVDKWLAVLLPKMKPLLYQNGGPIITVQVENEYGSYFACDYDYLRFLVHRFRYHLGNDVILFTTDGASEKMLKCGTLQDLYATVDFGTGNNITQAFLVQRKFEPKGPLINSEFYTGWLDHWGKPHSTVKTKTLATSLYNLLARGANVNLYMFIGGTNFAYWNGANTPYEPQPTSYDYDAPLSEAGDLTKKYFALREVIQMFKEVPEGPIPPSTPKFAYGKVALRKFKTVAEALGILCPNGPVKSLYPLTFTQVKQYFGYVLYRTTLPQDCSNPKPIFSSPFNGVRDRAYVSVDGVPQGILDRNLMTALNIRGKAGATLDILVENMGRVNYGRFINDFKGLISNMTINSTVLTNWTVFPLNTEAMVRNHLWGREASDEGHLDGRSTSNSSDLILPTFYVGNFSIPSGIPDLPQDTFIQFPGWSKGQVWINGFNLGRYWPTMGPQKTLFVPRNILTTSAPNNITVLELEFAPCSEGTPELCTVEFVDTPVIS
Method: NIH 3T3 cells that are not transfected with exogenous β-galactosidase were cultured in Dulbecco's Modified Minimal Essential Medium supplemented with 10% fetal bovine serum and 2 mM L-glutamine. Stock solutions of TFMFDG and TFFDG in phosphate buffered saline (PBS) are added to the cell culture medium to obtain a final dye concentration of 1 μM. The cells are incubated at 37° C. for 30 minutes, put on ice and assayed immediately by flow cytometry using a FACS-Vantage instrument equipped with an argon-ion laser (488 nm excitation). Fluorescence emission is collected using a 515 nm long-pass filter and a single photomultiplier tube.

[3] = test system: ATP-dependent dye efflux mechanisms in lymphoid-B cell lines; assay: Dye efflux from labeled cells with and without verapamil or probenecid, flow cytometry; assay type: cell-based
Method: Identical batches of lymphoid-B cell lines cells are separately incubated with […] solutions of 4,5,6,7-tetrafluorofluorescein diacetate (Compound 25), 2',7'-dichloro4,5,6,7-tetrafluorofluorescein diacetate (Compound 28), 2',4,5,6,7,7'-hexafluorofluorescein diacetate ([…]) and 2',4',5',7'-tetrafluorofluorescein diacetate. To one set of each cells is added 100 μM verapamil and to another 1 mM probenecid, both of which are known to block ATP-dependent dye efflux mechanisms, as found in multidrug resistant of cells. Without washing, the cells are analyzed for brightness by flow cytometry using 488-nm excitation.

[4] = test system: human lymphoid B-cell culture; assay: Cell labeling with fluorinated fluorescein diacetates, flow cytometry; assay type: cell-based; conditions: 1 μM, 37° C., 30 minutes, washed, fixed; compared with FDA after two hours (FIG. 5)
Method: Cells from a human lymphoid B-cell culture in RPMI 1640 medium are treated with 1 μM Compound 25 (4,5,6,7-TFFDA), Compound 26 (2',4,5,6,7,7'-HFFDA), or fluorescein diacetate (FDA) at 37° C. for 30 minutes. Following centrifugation and washing in PBS, the pellets are resuspended in RPMI 1640 medium for 15 min, recentrifuged and washed in PBS, fixed with 3.7% formaldehyde in PBS and analyzed by flow cytometry using 488 nm excitation. […] Alternatively, the stained and washed cells are viewed or analyzed without fixation.

[5] = molecular target: Escherichia coli β-galactosidase (Escherichia coli, UniProt P00722); assay: Labeling β-galactosidase with a fluorinated fluorescein diacetate; conditions: 3 mg enzyme in PBS pH 7.5, 13.6 μL of 1 mg/mL dye, 1 hour; estimated with ε=85,600 cm^-1 M^-1 at 515 nm
Sequence of Escherichia coli β-galactosidase (P00722 2-1024): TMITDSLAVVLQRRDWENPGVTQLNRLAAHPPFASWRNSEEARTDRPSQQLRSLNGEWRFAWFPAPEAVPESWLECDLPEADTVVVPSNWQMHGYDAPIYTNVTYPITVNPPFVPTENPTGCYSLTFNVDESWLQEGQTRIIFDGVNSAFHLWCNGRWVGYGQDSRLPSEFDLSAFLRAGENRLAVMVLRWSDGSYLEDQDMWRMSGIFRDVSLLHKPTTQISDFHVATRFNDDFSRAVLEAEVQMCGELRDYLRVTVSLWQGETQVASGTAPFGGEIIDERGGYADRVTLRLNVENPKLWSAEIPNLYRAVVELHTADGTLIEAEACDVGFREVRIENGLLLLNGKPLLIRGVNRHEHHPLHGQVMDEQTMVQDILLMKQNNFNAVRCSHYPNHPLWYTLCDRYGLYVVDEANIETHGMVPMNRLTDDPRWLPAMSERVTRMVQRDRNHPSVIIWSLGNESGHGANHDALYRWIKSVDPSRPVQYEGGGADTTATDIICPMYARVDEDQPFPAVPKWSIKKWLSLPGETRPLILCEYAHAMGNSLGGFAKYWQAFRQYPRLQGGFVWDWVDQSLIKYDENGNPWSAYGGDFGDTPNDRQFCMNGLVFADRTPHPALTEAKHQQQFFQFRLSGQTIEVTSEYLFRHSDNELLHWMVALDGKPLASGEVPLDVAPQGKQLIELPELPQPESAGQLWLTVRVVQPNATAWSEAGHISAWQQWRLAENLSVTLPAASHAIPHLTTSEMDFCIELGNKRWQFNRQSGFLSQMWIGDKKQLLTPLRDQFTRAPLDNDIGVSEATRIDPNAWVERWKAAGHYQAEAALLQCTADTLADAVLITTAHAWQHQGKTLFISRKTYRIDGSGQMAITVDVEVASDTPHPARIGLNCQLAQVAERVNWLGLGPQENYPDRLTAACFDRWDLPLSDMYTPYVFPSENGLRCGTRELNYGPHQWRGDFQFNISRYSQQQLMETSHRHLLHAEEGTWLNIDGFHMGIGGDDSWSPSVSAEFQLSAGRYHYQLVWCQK
Method: Escherichia coli β-galactosidase (3 mg) in 150 μL phosphate-buffered saline pH 7.5 is treated with 13.6 μL of a 1 mg/mL stock solution of 4,5,6,7-tetrafluorofluorescein diacetate (Compound 25) in DMSO. After 1 hour the pH is raised to 10 with Na2 CO3 for 2 hours to remove the acetates. Unreacted dye is removed on a spin column. The degree of substitution is estimated at 8.6 using κ=85,600 cm^-1 M^-1 at 515 nm.

[6] = molecular target: T2, acid β-galactosidase from bovine testes (Bos taurus, UniProt Q58D55); assay: Detection of acid β-galactosidase activity; assay type: biochemical; conditions: 50 μM substrate, 4.6 nM enzyme, pH 4.5, excitation 490 nm, emission 512 nm
T2 construct: from tissue; host or cells: bovine testes
T2 sequence (Q58D55 28-653): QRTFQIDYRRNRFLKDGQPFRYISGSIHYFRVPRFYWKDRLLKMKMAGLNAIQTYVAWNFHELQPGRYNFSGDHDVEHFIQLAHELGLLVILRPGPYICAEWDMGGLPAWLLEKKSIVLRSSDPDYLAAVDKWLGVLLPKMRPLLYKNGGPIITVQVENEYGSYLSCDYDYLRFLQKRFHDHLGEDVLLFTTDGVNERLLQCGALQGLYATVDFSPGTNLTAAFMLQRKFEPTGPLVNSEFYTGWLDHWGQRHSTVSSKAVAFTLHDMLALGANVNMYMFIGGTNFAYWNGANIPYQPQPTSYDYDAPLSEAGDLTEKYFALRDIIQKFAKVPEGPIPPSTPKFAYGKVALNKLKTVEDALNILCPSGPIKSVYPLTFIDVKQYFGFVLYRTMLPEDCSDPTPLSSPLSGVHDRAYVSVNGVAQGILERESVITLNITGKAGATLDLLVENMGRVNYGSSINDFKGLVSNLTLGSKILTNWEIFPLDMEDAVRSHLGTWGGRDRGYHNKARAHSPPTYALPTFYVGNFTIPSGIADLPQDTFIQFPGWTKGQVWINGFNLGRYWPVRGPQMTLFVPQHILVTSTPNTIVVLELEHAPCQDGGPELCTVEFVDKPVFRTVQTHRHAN
Method: The fluorescence resulting from the action of acid β-galactosidase from bovine testes on fluorescein digalactoside (FDG) and DFFDG is compared. The fluorescence increase at 512 nm when excited at 490 nm is measured versus time for 50 μM substrate with 4.6 nM enzyme in assay buffer (200 mM sodium phosphate +75 mM citric acid, pH 4.5). The initial rate of fluorescence production from DFFDG is 3.0 times that obtained using FDG.

[7] = Spectral properties of selected fluorinated fluoresceins and rhodols; assay type: physicochemical
[8] = Photodecomposition on illumination in fluorometer; assay type: physicochemical; conditions: % of decreased fluorescence intensity after 33 minutes of illumination in fluorometer at wavelength of maximum excitation
Method: *% of decreased fluorescence intensity after 33 minutes of illumination in
fluorometer at wavelength of maximum excitation

[9] = pH titration of fluorophores (pKa); conditions: Table 1
Method: The dye of interest is first dissolved in a series of buffers that have each been calibrated using a pH meter. Acetate buffers are typically used in the range of pH 46, and phosphate buffers in the pH range 68. Absorption measurements are made using solutions that are approximately 10 1M in concentration, and fluorescence measurements are made using solutions that are approximately 1 μM in concentration. The absorption or emission data is then plotted versus pH to determine pKa values.

[10] = Ca2+ binding affinity of BAPTA conjugate (Calcium Calibration Buffer Kit II)
Method: The fluorescence response and dissociation constant of the fluorescent BAPTA conjugates are determined using the Calcium Calibration Buffer Kit II (Molecular Probes, Inc.; Eugene Oreg.), which is based on a method described by Tsien et al. METH. ENZYM. 172, 230 (1989). For example, 1 mg of Compound 103 is dissolved in deionized water and 5 μL is diluted into 3 mL of each of two buffers, which are cross diluted to arrive at a series of Ca^2+ concentrations between zero and 35 μM. Emission spectra of the dye solutions are scanned between dilutions to generate a family of curves. Each of these curves has maximal fluorescence emission at approximately 530 nm with an increase in fluorescence emission intensity with increasing Ca^2+ concentration. This intensity change is plotted against the concentration of free Ca^2+ to give a value for the dissociation constant of the indicator. […] The calculated dissociation constant at 20° C. is 169 nM.

Sequence of prostatic acid phosphatase (P15309 33-386): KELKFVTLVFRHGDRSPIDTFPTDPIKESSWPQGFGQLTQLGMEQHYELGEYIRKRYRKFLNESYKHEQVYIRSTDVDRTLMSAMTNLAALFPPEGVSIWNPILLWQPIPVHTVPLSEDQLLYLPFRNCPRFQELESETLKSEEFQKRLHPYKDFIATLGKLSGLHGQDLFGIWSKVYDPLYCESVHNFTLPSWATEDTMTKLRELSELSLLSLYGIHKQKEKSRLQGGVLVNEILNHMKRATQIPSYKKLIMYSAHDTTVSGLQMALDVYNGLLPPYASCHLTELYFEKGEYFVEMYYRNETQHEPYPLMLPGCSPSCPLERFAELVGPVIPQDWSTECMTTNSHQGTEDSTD

In the case of `O=C1OC2(c3cc(F)c(OP(=O)(O)O)cc3Oc3cc(OP(=O)(O)O)c(F)cc32)c2ccccc21` [Compound 96, 2',7'-fluorofluorescein Diphosphate, Tetraammonium Salt], the “change in signal relative to FDP” value [1] is reported as about 6.5 times.
With `O=C1OC2(c3ccc(O[C@@H]4O[C@H](CO)[C@H](O)[C@H](O)[C@H]4O)cc3Oc3cc(O[C@@H]4O[C@H](CO)[C@H](O)[C@H](O)[C@H]4O)ccc32)c2c(F)c(F)c(F)c(F)c21` [Compound 95, 4,5,6,7-tetrafluorofluorescein, bis-O-galactoside] the “fluorescence signal relative to FDG” value [2] was 4.1 times and the “Fluorescence Emission” value [2] was 4.1.
For `COc1c(F)c(F)c2c(c1F)C1(OC2=O)c2ccc(O[C@@H]3O[C@H](CO)[C@H](O)[C@H](O)[C@H]3O)cc2Oc2cc(O[C@@H]3O[C@H](CO)[C@H](O)[C@H](O)[C@H]3O)ccc21` [TFMFDG, 4,5,7-trifluoro-6-methoxyfluorescein Digalactoside], the “fluorescence signal relative to FDG” value [2] was 48.1 times and the “Fluorescence Emission” value [2] was 48.1.
For `CC(=O)Oc1ccc2c(c1)Oc1cc(OC(C)=O)ccc1C21OC(=O)c2c(F)c(F)c(F)c(F)c21` [Compound 25, 4,5,6,7-tetrafluorofluorescein Diacetate], the “Mean Fluorescence intensity of labeled cells” value (“Mean Fluorescence intensity” for short) ([3]; 100 μM verapamil) was 1892, the “Mean Fluorescence intensity” value ([3]; 1 mM Probenecid) was 2521 and the “Mean Fluorescence intensity” value ([3]; No drug) was 732. The “fluorescence of stained cells” value [4] was “significantly higher fluorescence” and the “protein labeling (degree of substitution)” value [5] was 8.6.
For `O=C1OC2(c3cc(F)c(O[C@@H]4O[C@H](CO)[C@H](O)[C@H](O)[C@H]4O)cc3Oc3cc(O[C@@H]4O[C@H](CO)[C@H](O)[C@H](O)[C@H]4O)c(F)cc32)c2ccccc21` [Compound 94, 2',7'-difluorofluorescein, bis-O-galactoside], the “initial rate of fluorescence production relative to FDG” value [6] was 3.0 times.
In the case of `O=C1OC2(c3ccc(O)cc3Oc3cc(O)ccc32)c2c(F)c(F)c(F)c(F)c21` [Compound 34, 4,5,6,7-tetrafluorofluorescein], the Abs. ([7]; absorption maximum) is reported as 508 nm, the Em. ([7]; emission maximum) is reported as 527 nm and the “ε × 10^-3” value ([7]; extinction coefficient, value is ε × 10^-3) is reported as 85.6 cm^-1 M^-1. The “Quantum Yield” value ([7]; fluorescence quantum yield) was 0.85, the “protein labeling (degree of substitution)” value [5] was “minimal protein labeling” and the photodecomposition [8] was 6.6%. It also gave a pKa [9] of 6.1.
With `CC(=O)Oc1c(F)cc2c(c1F)Oc1c(cc(F)c(OC(C)=O)c1F)C21OC(=O)c2ccccc21` [2',4',5',7'-TFFDA, 2',4',5',7'-tetrafluorofluorescein diacetate] the “Mean Fluorescence intensity” value ([3]; 100 μM verapamil) was 14.0, the “Mean Fluorescence intensity” value ([3]; 1 mM Probenecid) was 12.8 and the “Mean Fluorescence intensity” value ([3]; No drug) was 2.9. The “fluorescence of stained cells” value [4] was “weakly fluorescent”.
In the case of `CC(=O)Oc1cc2c(cc1Cl)C1(OC(=O)c3c(F)c(F)c(F)c(F)c31)c1cc(Cl)c(OC(C)=O)cc1O2` [Compound 28, 2',7'-dichloro4,5,6,7-tetrafluorofluorescein Diacetate], the “Mean Fluorescence intensity” value ([3]; 100 μM verapamil) is reported as 110, the “Mean Fluorescence intensity” value ([3]; 1 mM Probenecid) is reported as 80.6 and the “Mean Fluorescence intensity” value ([3]; No drug) is reported as 15.6.
For `O=C1OC2(c3ccc(O[C@@H]4O[C@H](CO)[C@H](O)[C@H](O)[C@H]4O)cc3Oc3cc(O[C@@H]4O[C@H](CO)[C@H](O)[C@H](O)[C@H]4O)ccc32)c2ccccc21` [FDG, fluorescein digalactoside, reference compound], the “Fluorescence Emission” value [2] was 1.0.
For `CC(=O)Oc1cc2c(cc1F)C1(OC(=O)c3c(F)c(F)c(F)c(F)c31)c1cc(F)c(OC(C)=O)cc1O2` [Compound 27, 2',4,5,6,7,7'-hexafluorofluorescein Diacetate], the “Mean Fluorescence intensity” value ([3]; 100 μM verapamil) was 212, the “Mean Fluorescence intensity” value ([3]; 1 mM Probenecid) was 172 and the “Mean Fluorescence intensity” value ([3]; No drug) was 26.9. The “fluorescence of stained cells” value [4] was “significantly higher fluorescence”.
For `O=C(O)CN(CC(=O)O)c1ccccc1OCCOc1cc(NC(=O)c2ccc3c(c2)C(=O)OC32c3cc(F)c(O)cc3Oc3cc(O)c(F)cc32)ccc1N(CC(=O)O)CC(=O)O` [Compound 103], the “fluorescence emission intensity increase” value ([10]; Ca^2+ from zero to 35 μM, emission approximately 530 nm) was “approximately 17 fold” and the Kd ([10]; Ca^2+, 20° C., read-out: dissociation constant) was 169 nM.
